21 molecules from patent publication US9873696B2, “Neprilysin inhibitors” (THERAVANCE BIOPHARMA R&D IP, LLC, priority 2010, dated 2018) can be followed below.

Where only a bound is given, the exact number is not on record here.

T1 sequence (P08473 whole entry): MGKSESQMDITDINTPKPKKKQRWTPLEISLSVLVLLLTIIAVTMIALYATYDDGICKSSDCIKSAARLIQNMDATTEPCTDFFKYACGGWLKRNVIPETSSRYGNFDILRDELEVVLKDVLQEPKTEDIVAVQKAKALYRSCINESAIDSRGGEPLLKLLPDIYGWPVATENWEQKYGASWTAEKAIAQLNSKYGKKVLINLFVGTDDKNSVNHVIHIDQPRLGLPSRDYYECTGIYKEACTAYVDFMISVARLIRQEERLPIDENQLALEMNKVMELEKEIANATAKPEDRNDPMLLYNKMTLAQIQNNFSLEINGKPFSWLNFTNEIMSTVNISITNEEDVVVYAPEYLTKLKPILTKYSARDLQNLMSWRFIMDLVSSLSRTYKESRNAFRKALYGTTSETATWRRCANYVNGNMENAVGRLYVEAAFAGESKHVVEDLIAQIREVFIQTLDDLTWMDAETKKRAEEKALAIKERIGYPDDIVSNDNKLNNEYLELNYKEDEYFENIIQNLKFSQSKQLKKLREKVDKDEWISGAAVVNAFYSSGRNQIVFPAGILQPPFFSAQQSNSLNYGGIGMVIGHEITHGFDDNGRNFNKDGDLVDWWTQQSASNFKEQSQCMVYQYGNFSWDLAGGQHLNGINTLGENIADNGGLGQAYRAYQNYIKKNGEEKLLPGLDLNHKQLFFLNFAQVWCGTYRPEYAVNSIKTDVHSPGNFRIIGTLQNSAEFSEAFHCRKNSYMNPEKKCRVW

This test concerns the target T1, human NEP (Homo sapiens, UniProt P08473).
T1 construct: purchased R&D Systems, Minneapolis, Minn; 1182-ZN
Put plainly: In vitro enzyme inhibition assay at human NEP (Assay 1). Format: biochemical. Particulars: recombinant enzyme, fluorogenic peptide substrate, 37° C. As for the experimental part: In Vitro Assays for the Quantitation of Inhibitor Potencies (IC50) at Human and Rat NEP, and Human ACE
The inhibitory activities of compounds at human and rat neprilysin (EC 3.4.24.11; NEP) and human angiotensin converting enzyme (ACE) were determined using in vitro assays as described below.
Recombinant human NEP and recombinant human ACE were obtained commercially (R&D Systems, Minneapolis, Minn., catalog numbers 1182-ZN and 929-ZN, respectively). The fluorogenic peptide substrate Mca-D-Arg-Arg-Leu-Dap-(Dnp)-OH (Medeiros et al. (1997) Braz. J. Med. Biol. Res. 30:1157-62; Anaspec, San Jose, Calif.) and Abz-Phe-Arg-Lys(Dnp)-Pro-OH (Araujo et al. (2000) Biochemistry 39:8519-8525; Bachem, Torrance, Calif.) were used in the NEP and ACE assays respectively.
The assays were performed in 384-well white opaque plates at 37° C. using the fluorogenic peptide substrates at a concentration of 10 μM in Assay Buffer (NEP: 50 mM HEPES, pH 7.5, 100 mM NaCl, 0.01% polyethylene glycol sorbitan monolaurate (Tween-20), 10 μM ZnSO4; ACE: 50 mM HEPES, pH 7.5, 100 mM NaCl, 0.01% Tween-20, 1 μM ZnSO4).
Test compounds were assayed over the range of concentrations from […] to 20 μM. Test compounds were added to the enzymes and incubated for 30 minute at 37° C. prior to initiating the reaction by the addition of substrate. Reactions were terminated after 20 minutes of incubation at 37° C. by the addition of glacial acetic acid to a final concentration of 3.6% (v/v).
Plates were read on a fluorometer with excitation and emission wavelengths set to 320 nm and 405 nm, respectively. Inhibition constants were obtained by nonlinear regression of the data using the equation (GraphPad Software, Inc., San Diego, Calif.): v=v0/[1+(I/K′)] where v is the reaction rate, v0 is the uninhibited reaction rate, I is the inhibitor concentration and K′ is the apparent inhibition constant.
Compounds of the invention were tested in this assay and found to have pKi values at human NEP as follows.
Broadly, the Ki is the equilibrium dissociation constant of an inhibitor or competing ligand from its target. Turning to `O=C(NN(Cc1ccc(-c2ccccc2)cc1)C[C@@H](O)C(=O)O)c1cc(C(=O)N2CCCC2)n[nH]1` [Example 2-9, (R)-3-{N-Biphenyl-4-ylmethyl-N′-[5-(pyrrolidine-1-carbonyl)-2H-pyrazole-3-carbonyl]hydrazino}-2-hydroxypropionic acid], the Ki was 1.26 to 10 nM. `O=C(O)c1cc(C(=O)NN(Cc2ccc(-c3ccccc3)cc2)C[C@H](O)C(=O)O)[nH]n1` [Example 2-1, 5-[N′-Biphenyl-4-ylmethyl-N′-((S)-2-carboxy-2-hydroxyethyl)-hydrazinocarbonyl]-1H-pyrazole-3-carboxylic acid]: the inhibition constant Ki is 1.26 to 10 nM. With `O=C(NN(Cc1ccc(-c2ccccc2O)cc1)C[C@@H](O)C(=O)O)c1cc(O)no1` [Example 5-6, (R)-2-Hydroxy-3-[N-(2′-hydroxy-biphenyl-4-ylmethyl)-N′-(3-hydroxy-isoxazole-5-carbonyl)-hydrazino]-propionic acid], the inhibitory constant (Ki) was 1.26 to 10 nM.

On to `O=C(NN(Cc1ccc(-c2cccc(Cl)c2)cc1F)C[C@@H](O)C(=O)O)c1cn(O)nn1` [Example 10-9, (R)-3-[N-(3′-Chloro-3-fluoro-biphenyl-4-ylmethyl)-N′-(1-hydroxy-1H-[1,2,3]triazole-4-carbonyl)-hydrazino]-2-hydroxy-propionic acid], for which the Ki is at most 1 nM. Turning to `O=C(NN(Cc1ccc(-c2cccc(O)c2)cc1)C[C@H](O)C(=O)O)c1cc(O)no1` [Example 5-3, (S)-2-Hydroxy-3-[N-(3′-hydroxy-biphenyl-4-ylmethyl)-N′-(3-hydroxy-isoxazole-5-carbonyl)-hydrazino]-propionic acid], the Ki is 1.26 to 10 nM. As for `O=C(NN(Cc1ccc(-c2cccc(Cl)c2)c(F)c1)C[C@@H](O)C(=O)O)c1cc(O)no1` [Example 10-6, (R)-3-[N-(3′-Chloro-2-fluoro-biphenyl-4-ylmethyl)-N′-(3-hydroxy-isoxazole-5-carbonyl)-hydrazino]-2-hydroxy-propionic acid], the inhibitory constant (Ki) is at most 1 nM.

Consider `O=C(NN(Cc1ccc(-c2cc(Cl)ccc2F)cc1Cl)C[C@@H](O)C(=O)O)c1c[nH]nn1` [Example 10-10, (R)-3-[N-(3,5′-Dichloro-2′-fluoro-biphenyl-4-ylmethyl)-N′-(1H-[1,2,3]triazole-4-carbonyl)-hydrazino]-2-hydroxy-propionic acid], for which the inhibitory constant (Ki) was at most 1 nM. Turning to `O=C(NN(Cc1ccc(-c2cc(O)cc(Cl)c2)cc1)C[C@H](O)C(=O)O)c1cc(O)no1` [Example 8-27, (S)-3-[N-(5′-Chloro-3′-hydroxy-biphenyl-4-ylmethyl)-N′-(3-hydroxy-isoxazole-5-carbonyl)-hydrazino]-2-hydroxy-propionic acid], the inhibition constant (Ki) was at most 1 nM.

Turning to `CC(C)CN(C)C(=O)c1cc(C(=O)NN(Cc2ccc(-c3ccccc3)cc2)C[C@@H](O)C(=O)O)[nH]n1` [Example 2-7, (R)-3-{N-Biphenyl-4-ylmethyl-N′-[5-(isobutylmethylcarbamoyl)-2H-pyrazole-3-carbonyl]hydrazino}-2-hydroxypropionic acid], the Ki is 12.6 to 100 nM. As for `COc1c(F)c(F)c(Cn2nc(C(=O)NN(Cc3ccc(-c4ccccc4)cc3)C[C@@H](O)C(=O)O)cc2C(=O)O)c(F)c1F` [Example 2-18, 5-[N′-Biphenyl-4-ylmethyl-N′-((R)-2-carboxy-2-hydroxyethyl)-hydrazinocarbonyl]-2-(2,3,5,6-tetrafluoro-4-methoxybenzyl)-2H-pyrazole-3-carboxylic acid], the inhibition constant Ki was 1.26 to 10 nM. On to `COCCN(C)C(=O)c1cc(C(=O)NN(Cc2ccc(-c3ccccc3)cc2)C[C@@H](O)C(=O)O)[nH]n1` [Example 2-5, (R)-3-(N-Biphenyl-4-ylmethyl-N′-{5-[(2-methoxyethyl)methylcarbamoyl]-2H-pyrazole-3-carbonyl}hydrazino)-2-hydroxypropionic acid], for which the Ki was 12.6 to 100 nM. Turning to `O=C(NN(Cc1ccc(-c2ccccc2)cc1)C[C@@H](O)C(=O)O)c1cc(C(=O)N2CCC(O)C2)n[nH]1` (stereo partly drawn) [Example 2-10, (R)-3-{N-Biphenyl-4-ylmethyl-N′-[5-(3-hydroxy-pyrrolidine-1-carbonyl)-2H-pyrazole-3-carbonyl]hydrazino}-2-hydroxypropionic acid], the inhibition constant (Ki) was 1.26 to 10 nM. Next, `O=C(NN(Cc1ccc(-c2cccc(Cl)c2)cc1F)C[C@@H](O)C(=O)O)c1cc(O)no1` [Example 9A, (R)-3-[N-(3′-Chloro-3-fluorobiphenyl-4-ylmethyl)-N′-(3-hydroxyisoxazole-5-carbonyl)-hydrazino]-2-hydroxpropionic Acid]: at most 1 nM; `O=C(NN(Cc1ccc(-c2cccc(Cl)c2)cc1Cl)C[C@@H](O)C(=O)O)c1c[nH]nn1` [Example 10-11, (R)-3-[N-(3,3′-Dichloro-biphenyl-4-ylmethyl)-N′-(1H-[1,2,3]triazole-4-carbonyl)-hydrazino]-2-hydroxy-propionic acid]: at most 1 nM. For `Cc1cc(Cl)cc(-c2ccc(CN(C[C@H](O)C(=O)O)NC(=O)c3cc(O)no3)cc2)c1F` [Example 8-23, (S)-3-[N-(5′-Chloro-2′-fluoro-3′-methyl-biphenyl-4-ylmethyl)-N′-(3-hydroxy-isoxazole-5-carbonyl)-hydrazino]-2-hydroxy-propionic acid], the inhibition constant Ki is 1.26 to 10 nM. As for `O=C(NN(Cc1ccc(-c2cc(Cl)ccc2F)cc1)C[C@@H](O)C(=O)O)c1cc(-c2ccccc2F)no1` [Example 8-18, (R)-3-{N-(5′-Chloro-2′-fluoro-biphenyl-4-ylmethyl)-N′-[3-(2-fluoro-phenyl)-isoxazole-5-carbonyl]-hydrazino}-2-hydroxy-propionic acid], the figure is at most 1 nM; as for `O=C(NN(Cc1ccc(-c2cccc(Cl)c2O)cc1)C[C@@H](O)C(=O)O)c1cc(O)no1` [Example 8-7, (R)-3-[N-(3′-Chloro-2′-hydroxy-biphenyl-4-ylmethyl)-N′-(3-hydroxy-isoxazole-5-carbonyl)-hydrazino]-2-hydroxy-propionic acid], 1.26 to 10 nM; as for `O=C(NN(Cc1ccc(-c2cc(Cl)ccc2F)cc1)C[C@@H](O)C(=O)O)c1cc(C2CC2)n[nH]1` [Example 8-43, (R)-3-[N-(5′-Chloro-2′-fluoro-biphenyl-4-ylmethyl)-N′-(5-cyclopropyl-2H-pyrazole-3-carbonyl)-hydrazino]-2-hydroxy-propionic acid], at most 1 nM. For the molecule `O=C(NN(Cc1ccc(-c2cc(Cl)ccc2F)cc1)C[C@@H](O)C(=O)O)c1c[nH]c(=O)o1` [Example 8-74, (R)-3-[N-(5′-Chloro-2′-fluoro-biphenyl-4-ylmethyl)-N′-(2-oxo-2,3-dihydro-oxazole-5-carbonyl)-hydrazino]-2-hydroxy-propionic acid], the Ki was at most 1 nM. As to `O=C(NN(Cc1ccc(-c2cc(Cl)ccc2Cl)cc1)C[C@@H](O)C(=O)O)c1cn(O)nn1` [Example 7A, (R)-3-[N-(2′,5′-Dichlorobiphenyl-4-ylmethyl)-N′-(1-hydroxy-H-[1,2,3]triazole-4-carbonyl)-hydrazino]-2-hydroxypropionic Acid], the inhibitory constant (Ki) was at most 1 nM. With `O=C(NN(Cc1ccc(-c2cccc(Cl)c2)cc1)C[C@@H](O)C(=O)O)c1cc(O)no1` [Example 3B, (R)-3-[N-(3′-Chlorobiphenyl-4-ylmethyl)-N′-(3-hydroxyisoxazole-5-carbonyl)-hydrazino]-2-hydroxypropionic Acid], the Ki is at most 1 nM.
